The values below are quoted from earlier work in patent publication US8097625B2, “Combination of sedative and a neurotransmitter modulator, and methods for improving sleep quality and treating depression” (priority 2003, dated 2012).

As usually defined, the Ki is the equilibrium dissociation constant of an inhibitor or competing ligand from its target.

For series [1] the following is noted: oral, 10 mg or 20 mg daily doses; cited from earlier work.
Series [2] relates to patients with major depression. The note with it: 24 patients (37 trials) with major depression, 3 weeks; cited from earlier work.
Series [3] deals with norepinephrine and serotonin reuptake. The following applies: cited from earlier work.
For series [4] the following is noted: humans, cited from earlier work.
For series [5] the following is noted: cited from earlier work.
Series [6] addresses norepinephrine transporter (Homo sapiens, UniProt P23975). The note with it: cited from earlier work.
For series [7] the following is noted: cited from earlier work. The source holds these as a separate data set.
The test system of the next series is GABA uptake system. The arrangement: dose or concentration left out as unconfirmed. The note with it: cited from earlier work.
Series [8] relates to L-glutamate 1-carboxylase. The following applies: 10^−3 M; cited from earlier work.
Series [9] deals with GABA:2-oxo-glutarate aminotransferase (Homo sapiens, UniProt P80404). The following applies: 10^−3 M; cited from earlier work.
Series [10] deals with lumbar dorsal horn interneurones and Renshaw cells. The note with it: cats anaesthetized with pentobarbitone sodium; electrophoretic currents; cited from earlier work.
Another series concerns mice. The following applies: reference agents, scores below 40 denote behavioral depression; cited from earlier work.
The conditions of series [11]: humans, 20 or 40 mg b.i.d. for 7 days; cited from earlier work.
For series [12] the following is noted: oral; cited from earlier work.

Structures are written as SMILES. Counter-ions that a name gives are not always drawn.

norepinephrine transporter, sequence (P23975 whole entry): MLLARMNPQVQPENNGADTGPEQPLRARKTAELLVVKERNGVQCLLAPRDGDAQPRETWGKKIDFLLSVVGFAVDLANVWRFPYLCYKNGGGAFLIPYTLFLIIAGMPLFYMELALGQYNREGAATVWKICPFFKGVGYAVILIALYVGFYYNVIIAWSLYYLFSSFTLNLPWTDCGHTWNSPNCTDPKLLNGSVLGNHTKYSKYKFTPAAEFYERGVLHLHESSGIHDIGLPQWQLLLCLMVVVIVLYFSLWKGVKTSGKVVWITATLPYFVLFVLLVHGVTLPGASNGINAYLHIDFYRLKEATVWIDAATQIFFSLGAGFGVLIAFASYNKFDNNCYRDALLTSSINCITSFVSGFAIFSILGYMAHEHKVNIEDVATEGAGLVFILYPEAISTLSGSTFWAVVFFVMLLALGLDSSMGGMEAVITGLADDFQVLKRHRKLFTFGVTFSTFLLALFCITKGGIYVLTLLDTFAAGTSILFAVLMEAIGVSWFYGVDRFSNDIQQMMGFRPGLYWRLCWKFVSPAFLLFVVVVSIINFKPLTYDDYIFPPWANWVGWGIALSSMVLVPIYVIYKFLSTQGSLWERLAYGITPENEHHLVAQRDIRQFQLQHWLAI
GABA:2-oxo-glutarate aminotransferase, sequence (P80404 29-500): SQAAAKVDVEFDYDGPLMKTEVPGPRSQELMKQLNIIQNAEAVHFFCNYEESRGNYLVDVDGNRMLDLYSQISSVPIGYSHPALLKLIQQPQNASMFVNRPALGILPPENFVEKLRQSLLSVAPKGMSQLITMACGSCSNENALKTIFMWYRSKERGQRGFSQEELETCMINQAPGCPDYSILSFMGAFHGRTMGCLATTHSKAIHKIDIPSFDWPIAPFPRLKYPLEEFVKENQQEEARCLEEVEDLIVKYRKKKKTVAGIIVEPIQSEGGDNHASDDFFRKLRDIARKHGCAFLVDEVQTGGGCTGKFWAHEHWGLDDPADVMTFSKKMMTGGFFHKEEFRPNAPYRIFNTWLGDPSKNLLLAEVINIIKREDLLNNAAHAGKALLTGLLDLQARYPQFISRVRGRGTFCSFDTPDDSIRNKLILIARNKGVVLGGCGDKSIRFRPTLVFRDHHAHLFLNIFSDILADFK

With `CNCCC(Oc1ccc(C(F)(F)F)cc1)c1ccccc1.Cl` (racemic) [Fluoxetine hydrochloride, N-methyl-3-(p-trifluormethylphenoxy)3-phenylpropylamine], in series [1], the elimination half-life is 24 to 220 h and the “elimination half-life, averaging” value is 48 to 72 h.

Take `CNCC(O)CC12CCC(c3ccccc31)c1ccccc12` (racemic) [oxaprotiline, (±)-α-[(Methylamino)-methyl]-9,10-ethanoanthracene-9(10H)-ethanol]: the “Hamilton Scores” value in [2] was “significant reduction”.

Take `CCN(CC)C(=O)[C@@]1(c2ccccc2)C[C@H]1CN` (single isomer, unassigned) [dextrogyral enantiomer of milnacipran]: the “activity in inhibiting norepinephrine and serotonin reuptake versus the racemic mixture” value in series [3] was “about twice as active”.

In the case of `CCN(CC)C(=O)[C@@]1(c2ccccc2)C[C@H]1CN` (single isomer, unassigned) [levrogyral enantiomer], the “activity in inhibiting norepinephrine and serotonin reuptake versus the racemic mixture” value in series [3] was “much less potent”.

On to `CC(NC(C)(C)C)C(=O)c1cccc(Cl)c1` (stereo not drawn) [Bupropion], for which the “mean elimination half-life (±SD)” value in series [4] (after chronic dosing) was 21 (±9) hours. Also, in [4] (oral administration), the “terminal phase mean half-life” value is 14 h.

With `CNCCCN1c2ccccc2CCc2ccccc21` [Desipramine hydrochloride, 10,11-Dihydro-N-methyl-5H-dibenz[b,f]azepine-5-propanamine], the “solubility in water (in words)” value in series [5] is “soluble in water”.

As to `c1ccc(CCCN2CCN(CCOC(c3ccccc3)c3ccccc3)CC2)cc1` [GBR-12935, 1-[2-(diphenylmethoxy)ethyl]-4-(3-phenylpropyl)piperazine dihydrochloride], the inhibitory constant (Ki) in series [6] was 225 nM.

Take `CC(=O)N(C)c1cccc(-c2ccnc3c(C(=O)c4cccs4)cnn23)c1` [Indiplon, N-methyl-N-(3-{3-[2-thienylcarbonyl]-pyrazolo-[1,5-a]-pyrimidin-7-yl}-phenyl)acetamide]: the half-life in vivo result in [7] was “approximately 1.3 hours”. The “resulting pH of solution in water” value in [5] (at approximately 20-30 µg/mL) is “approximately 8.0”. Moreover, the soluble in water in [5] (resulting pH approximately 8.0) is 20 to 30 µg/mL.

Take `CNCCCC12CCC(c3ccccc31)c1ccccc12` [Maprotiline hydrochloride, N-Methyl-9,10-ethanoanthracene-9(10H)-propanamine]: the “solubility in water (in words)” value in series [5] is given as “slightly soluble in water”.

As to `Oc1noc2c1CCNC2` [gaboxadol, 4,5,6,7-tetrahydroisoxazolo[5,4-c]pyridin-3-ol], the “interaction with the GABA uptake system” value in the series with GABA uptake system was “did not interact”. Moreover, the “interaction with L-glutamate 1-carboxylase” value in [8] is recorded as “did not interact”. For the same molecule, the “interaction with GABA:2-oxo-glutarate aminotransferase” value in [9] was “did not interact”. Besides, the “potency versus GABA, inhibition of the firing of central neurones” value in series [10] is listed as “relatively more potent than GABA”.

With `CCC1(c2ccccc2)CCC(=O)NC1=O` (stereo not drawn) [glutethimide], in the series on mice, the ED100 is 300 mg/kg.

As for `O=C(CCCN1CCC(O)(c2ccc(Cl)cc2)CC1)c1ccc(F)cc1` [haloperidol], the ED100 in the series on mice was 10 mg/kg.

Take `CCCC(C)(COC(N)=O)COC(N)=O` [meprobamate]: in the series on mice, the ED100 is given as 300 mg/kg.

Turning to `CCCC(C)C1(CC)C(=O)NC(=O)NC1=O` (stereo not drawn) [pentobarbital], the ED100 in the series on mice is on record as 100 mg/kg.

`COC(=O)[C@H]1[C@H]2C[C@@H]3c4[nH]c5cc(OC)ccc5c4CCN3C[C@H]2C[C@@H](OC(=O)c2cc(OC)c(OC)c(OC)c2)[C@@H]1OC` [reserpine]: the ED100 in the series on mice is reported as 50 mg/kg.

For the molecule `CNCC[C@@H](Oc1ccccc1C)c1ccccc1` [tomoxetine, (R)-(−)-N-methyl-3-(2-methylphenoxy)-3-phenylpropylamine], the drug-related adverse effects entry in series [11] is on record as “no serious drug-related adverse effects were observed”.

Consider `Cc1ccc(-c2nc3ccc(C)cn3c2CC(=O)N(C)C)cc1` [zolpidem, N,N,6-trimethyl-2-(4-methylphenyl)-imidazo [1,2-s]pyridine-3-acetamide], for which, in series [12], the duration of action result is reported as “up to 6 hours”.
